# “Also recorded” adds a separate entry of the source.
# Experiments:
# Type in all cases: in vivo
# Cisplatin-induced uremia [1] = assay: Kidney histopathological examination in cisplatin-induced uremia Sprague-Dawley rat model
# Experimental: (§1) The intravenous administration was done by fixing an animal into a correction frame, and slowly injecting at a rate of within 1 mL/min through the micro vein using a syringe equipped with 26 gauges needle. The intraperitoneal administration was performed by fixing the animal by a transdormal skin fixation method and intraperitoneally injecting using a syringe equipped with 26 gauges needle.
# Finally, animals were inhaled with ether on an necropsy day to anesthetize and euthanize, and kidneys were extracted and fixed in a 10% neutral buffered formalin solution, and the fixed tissues were cut, dehydrated, paraffin embedded and hematoxylin & eosin stained to make a specimens for histopathological examination after these histological treatment. And then, the obtained specimen is subjected to speculum using an optical microscope (Olympus BX53, Japan).
# [2] = Body weight in cisplatin-induced uremia Sprague-Dawley rat model; conditions: all test substance-administered groups (10 and 20 μg/head, single IV dose 8 h after cisplatin 5 mg/kg IP); Day 7; versus normal control group
# Experimental: Cisplatin-induced uremia was evaluated for the effect of administration of test substance on an improvement of uremia in the Sprague-Dawley rat model. […] Cisplatin was intraperitoneally administered (IP) and test substance was intravenously administered (IV).
# Cisplatin-induced uremia [3] = assay: Blood biochemical test (serum BUN and CRE) in cisplatin-induced uremia Sprague-Dawley rat model
# Experimental: as §1
# Serum obtained from the centrifugation was tested for blood urea nitrogen (BUN) and […] (CRE) using a blood biochemical analyzer (7180 Hitachi, Japan).
# [4] = serum, high dose group (20 μg/1 mL/head, single IV), versus induced control group given excipient
substance,measurement,setting,value
"H-Ala-Pro-Ala-His-Arg-Ser-Ser-Thr-Phe-Pro-Lys-Trp-Val-Thr-Lys-Thr-Glu-Arg-Gly-Arg-Gln-Pro-Leu-Arg-Ser-OH-trifluoroacetate salt (H-APAHRSSTFPKWVTKTERGRQPLRS-OH; also: trifluoroacetate salt) [test substance, human-derived alarin, peptide derived from a splice variant of galanin-like peptide (GALP) RNA]","histopathological examination results, lesion level across doses","Cisplatin-induced uremia [1]; 10 and 20 μg/1 mL/head, single IV dose",dose-related change trend and significant changes in lesion level
same,"level of lesion, histopathological examination of kidney","Cisplatin-induced uremia [1]; high dose group (20 μg/head, single IV), H&E stained kidney, Day 7, versus control group",significantly lower
same,weight level measured on the day of necropsy,[2],no significant difference
same,improvement of uremia (overall conclusion),"Cisplatin-induced uremia [3]; cisplatin-induced uremia model, conclusion from blood biochemistry and histopathology",have an effect on the improvement of uremia
same,blood urea nitrogen (BUN) level,Cisplatin-induced uremia [3]; [4],significantly lower; also recorded: significant difference
same,creatinine (CRE) level,Cisplatin-induced uremia [3]; [4],significantly lower; also recorded: significant difference
same,blood biochemical level,"Cisplatin-induced uremia [3]; single dose of 10 μg/1 mL/head and 20 μg/1 mL/head IV, versus control group of excipient",tendency to improve

# Source: patent publication US20200254059A1, “THERAPEUTIC AGENT OF UREMIA CONTAINING ALARIN AS THE MAIN INGREDIENT” (JU TIDE CO., LTD., priority 2017, published 2020)
